Experimental data published in patent publication EP0288055B1, “Use of ODC inhibitors, dacarbazine, and interferon, in the treatment of malignant melanoma” (MERRELL DOW PHARMACEUTICALS INC., priority 1987, dated 1988).

Test system: B16 melanoma
Assay: Effect on the growth of B16 melanoma in mice (tumor weight at sacrifice)
Type: in vivo
Conditions: for Tumor Weight (g) (Mean ± S.E.): B16 melanoma cells (1 x 10^5 cells/animal) S.C., tumors weighed on day 18, DFMO 2% in drinking water day 1-18, DTIC 6.25 mg/Kg i.p. once daily day 1-15, IFN 1000 units/animal S.C. alternate days day 2-18; for % Inhibition: inhibition of tumor weight vs control on day 18, same dosing as for tumor weight
Source text: EFFECT OF A COMBINATION OF α-DIFLUOROMETHYLORNITHINE (DFMO), DACARBAZINE (DTIC) AND α-INTERFERON (IFN) ON THE GROWTH OF B16 MELANOMA IN MICE

Compound | Tumor Weight (g) (Mean ± S.E.) | % Inhibition
CN(C)N=Nc1[nH]cnc1C(N)=O [DTIC, 5-(3,3-Dimethyl-1-triazenyl)-1H-imidazole-4-carboxamide] | 3.2 ± 0.63 g | 35.0%
NCCC[C@](N)(C(=O)O)C(F)F [DFMO, α-difluoromethyl ornithine] | 1.02 ± 0.15 g | 86.0%
